From patent US20230293519A1, “INTEGRIN INHIBITORS AND USES THEREOF IN COMBINATION WITH OTHER AGENTS” (Pliant Therapeutics, Inc., priority 2021, published 2023)

Molecular target: recombinant human integrin αvβ6 (Homo sapiens (Human), UniProt P06756+P18564)
Assay: Solid phase integrin αvβ6 binding assay
Details: IC50 presented in four ranges; read-out: αvβ6 Inhibition IC50 (nM) - range
Procedure: (§1) Microplates were coated with recombinant human integrin αvβ6 (2 µg/mL) in PBS (100 µL/well 25° C., overnight). The coating solution was removed, washed with wash buffer (0.05% Tween 20; 0.5 mM MnCl2; in 1x TBS). The plate was blocked with 200 µL/well of Block Buffer (1% BSA; 5% sucrose; 0.5 mM MnCl2; in 1x TBS) at 37° C. for 2 h. Dilutions of testing compounds and recombinant TGFβ1 LAP (0.67 µg/mL) in binding buffer (0.05% BSA; 2.5% sucrose; 0.5 mM MnCl2; in 1x TBS) were added. The plate was incubated for 2 hours at 25° C., washed, and incubated for 1 hour with Biotin-Anti-hLAP. Bound antibody was detected by peroxidase-conjugated streptavidin. The IC50 values for testing compounds were calculated by a four-parameter logistic regression.
The compounds tested were compound samples prepared according to procedures described in the Synthetic Examples section, with the stereochemical purity as indicated in the Examples.
as §1, with “A third series of exemplary compounds was selected for testing in the solid phase integrin αvβ6 binding assay. The compounds tested were compound samples prepared according to procedures described in the Synthetic Examples section, with the stereochemical purity as indicated in the Examples. As in Example B1, microplates” for “Microplates”

recombinant human integrin αvβ6, sequence (P06756 31-889): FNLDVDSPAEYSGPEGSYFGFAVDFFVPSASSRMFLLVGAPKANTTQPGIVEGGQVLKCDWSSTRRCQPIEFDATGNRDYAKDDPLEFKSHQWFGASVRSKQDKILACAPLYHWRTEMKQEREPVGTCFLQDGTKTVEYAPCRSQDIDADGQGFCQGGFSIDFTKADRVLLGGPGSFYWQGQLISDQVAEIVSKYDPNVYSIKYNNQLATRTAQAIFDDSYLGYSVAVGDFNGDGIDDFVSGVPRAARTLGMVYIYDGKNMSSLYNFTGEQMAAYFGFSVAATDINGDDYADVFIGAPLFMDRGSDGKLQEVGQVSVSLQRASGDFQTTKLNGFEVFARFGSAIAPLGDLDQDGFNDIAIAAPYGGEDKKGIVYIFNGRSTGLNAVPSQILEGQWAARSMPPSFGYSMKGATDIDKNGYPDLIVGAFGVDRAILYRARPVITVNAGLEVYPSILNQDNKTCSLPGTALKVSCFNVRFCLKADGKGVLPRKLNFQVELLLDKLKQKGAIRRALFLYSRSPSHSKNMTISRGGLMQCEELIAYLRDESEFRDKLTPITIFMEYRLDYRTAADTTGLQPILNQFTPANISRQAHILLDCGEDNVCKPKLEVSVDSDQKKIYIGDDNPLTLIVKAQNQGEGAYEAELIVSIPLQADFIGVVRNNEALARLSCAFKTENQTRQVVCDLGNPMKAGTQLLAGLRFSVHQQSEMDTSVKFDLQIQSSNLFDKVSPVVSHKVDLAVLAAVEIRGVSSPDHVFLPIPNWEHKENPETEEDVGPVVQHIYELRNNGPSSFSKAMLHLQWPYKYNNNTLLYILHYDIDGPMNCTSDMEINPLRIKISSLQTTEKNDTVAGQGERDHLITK
recombinant human integrin αvβ6, sequence (P06756 890-992 partner): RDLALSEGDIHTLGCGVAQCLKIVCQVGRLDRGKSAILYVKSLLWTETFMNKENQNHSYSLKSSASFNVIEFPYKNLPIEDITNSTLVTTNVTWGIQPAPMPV
recombinant human integrin αvβ6, sequence (P18564 22-707): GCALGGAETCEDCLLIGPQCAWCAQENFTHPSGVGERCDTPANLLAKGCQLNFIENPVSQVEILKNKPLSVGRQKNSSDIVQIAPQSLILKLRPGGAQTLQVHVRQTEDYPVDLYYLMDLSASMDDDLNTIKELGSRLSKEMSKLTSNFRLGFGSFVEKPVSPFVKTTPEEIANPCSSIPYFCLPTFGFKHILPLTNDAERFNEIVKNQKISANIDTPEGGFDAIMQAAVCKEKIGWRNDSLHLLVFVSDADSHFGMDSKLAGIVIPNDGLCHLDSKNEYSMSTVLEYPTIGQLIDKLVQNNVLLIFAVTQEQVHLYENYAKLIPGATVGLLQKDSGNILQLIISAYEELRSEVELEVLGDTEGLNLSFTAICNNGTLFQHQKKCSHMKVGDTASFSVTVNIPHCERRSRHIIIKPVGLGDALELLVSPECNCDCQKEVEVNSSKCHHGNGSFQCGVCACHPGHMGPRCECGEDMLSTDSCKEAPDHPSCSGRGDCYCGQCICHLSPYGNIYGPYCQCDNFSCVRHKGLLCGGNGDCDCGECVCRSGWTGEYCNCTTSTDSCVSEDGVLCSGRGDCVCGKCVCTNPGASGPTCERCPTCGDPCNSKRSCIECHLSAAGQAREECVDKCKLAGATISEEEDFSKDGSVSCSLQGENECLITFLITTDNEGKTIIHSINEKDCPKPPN

IC50 [nM] | SMILES
50 to 250 | O=C(O)[C@H](CCN(CCCCc1ccc2c(n1)NCCC2)C1CC1)Nc1ncnc2ccccc12 [compound 6]
< 50 | COCCN(CCCCc1ccc2c(n1)NCCC2)CC[C@H](Nc1ncnc2cc(F)ccc12)C(=O)O [compound 7]
50 to 250 | O=C(O)[C@H](CCN(CCCCc1ccc2c(n1)NCCC2)CC(F)F)Nc1ncnc2ccccc12 [compound 8]
> 1000 | O=C(O)[C@H](CCN(CCCCc1ccc2c(n1)NCCC2)C1CC(F)(F)C1)Nc1ncnc2ccccc12 [compound 9]
< 50 | COCCN(CCCCc1ccc2c(n1)NCCC2)CC[C@H](Nc1nc(C)nc2ccccc12)C(=O)O [compound 10]
< 50 | COCCN(CCCCc1ccc2c(n1)NCCC2)CCC(Nc1ncnc2ncccc12)C(=O)O (centres unmarked) [compound 11]
< 50 | COCCN(CCCCc1ccc2c(n1)NCCC2)CC[C@H](Nc1nc(C)nc2cc(F)ccc12)C(=O)O [compound 12]
< 50 | COCCN(CCCCc1ccc2c(n1)NCCC2)CC[C@H](Nc1nc(C(F)(F)F)nc2ccccc12)C(=O)O [compound 14]
< 50 | COCCN(CCCCc1ccc2c(n1)NCCC2)CC[C@H](Nc1ncnc2c(C(F)(F)F)cccc12)C(=O)O [compound 15]
< 50 | COCCN(CCCCc1ccc2c(n1)NCCC2)CC[C@H](Nc1ncnc2cccc(F)c12)C(=O)O [compound 18]
< 50 | COCCN(CCCCc1ccc2c(n1)NCCC2)CC[C@H](Nc1ncnc2ccc(F)cc12)C(=O)O [compound 19]
< 50 | COCCN(CCCCc1ccc2c(n1)NCCC2)CC[C@H](Nc1ncnc2c(F)cccc12)C(=O)O [compound 20]
< 50 | COCCN(CCCCc1ccc2c(n1)NCCC2)CC[C@H](Nc1ncnc2cc(F)c(F)cc12)C(=O)O [compound 21]
< 50 | COCCN(CCCCc1ccc2c(n1)NCCC2)CC[C@H](Nc1cc(C(F)(F)F)nc(C)n1)C(=O)O [compound 22]
< 50 | COCCN(CCCCc1ccc2c(n1)NCCC2)CC[C@H](Nc1cc(C(F)F)ncn1)C(=O)O [compound 23]
< 50 | COCCN(CCCCc1ccc2c(n1)NCCC2)CC[C@H](Nc1ccnc(C(F)(F)F)n1)C(=O)O [compound 24]
< 50 | CO[C@@H](C)CN(CCCCc1ccc2c(n1)NCCC2)CC[C@H](Nc1ncnc2ccccc12)C(=O)O [compound 25]
< 50 | COCCN(CCCCc1ccc2c(n1)NCCC2)CC[C@H](Nc1cc(C)nc(C(F)(F)F)n1)C(=O)O [compound 26]
< 50 | CS(=O)(=O)CCN(CCCCc1ccc2c(n1)NCCC2)CC[C@H](Nc1ncnc2ccccc12)C(=O)O [compound 27]
< 50 | O=C(O)[C@H](CCN(CCCCc1ccc2c(n1)NCCC2)CCOc1ccccc1)Nc1ncnc2ccccc12 [compound 28]
< 50 | O=C(O)[C@H](CCN(CCCCc1ccc2c(n1)NCCC2)CCC(F)F)Nc1ncnc2ccccc12 [compound 29]

IC50 [nM] | SMILES
< 50 | O=C(O)[C@H](CCN(CCCF)CCCCc1ccc2c(n1)NCCC2)Nc1ncnc2ccccc12 [compound 30]
< 50 | COC[C@@H](F)CN(CCCCc1ccc2c(n1)NCCC2)CC[C@H](Nc1ncnc2ccccc12)C(=O)O [compound 31]
< 50 | COC[C@@H](F)CN(CCCCc1ccc2c(n1)NCCC2)CC[C@H](Nc1nc(C)nc2cc(F)ccc12)C(=O)O [compound 32]
< 50 | Cc1nc(N[C@@H](CCN(CCCCc2ccc3c(n2)NCCC3)CC2CC(F)(F)C2)C(=O)O)c2ccc(F)cc2n1 [compound 33]
> 1000 | COCCN(CCCCc1ccc2c(n1)NCCC2)CC[C@H](Nc1nccc2ccccc12)C(=O)O [compound 34]
< 50 | O=C(O)[C@H](CCN(CCCCc1ccc2c(n1)NCCC2)CCOC(F)F)Nc1ncnc2ccccc12 [compound 35]
> 1000 | COCCN(CCCCc1ccc2c(n1)NCCC2)CC[C@H](Nc1ccnc2ccccc12)C(=O)O [compound 36]
50 to 250 | COCCN(CCCCc1ccc2c(n1)NCCC2)CC[C@H](Nc1ncnc2cc(Cl)ccc12)C(=O)O [compound 37]
< 50 | COCCN(CCCCc1ccc2c(n1)NCCC2)CC[C@H](Nc1ncnc2c(Cl)cccc12)C(=O)O [compound 38]
< 50 | O=C(O)[C@H](CCN(CCCCc1ccc2c(n1)NCCC2)CCOCC(F)(F)F)Nc1ncnc2ccccc12 [compound 39]
< 50 | Cc1nc(N[C@@H](CCN(CCCCc2ccc3c(n2)NCCC3)CCOc2ccc(F)cc2)C(=O)O)c2ccc(F)cc2n1 [compound 40]
< 50 | COc1ccc2c(N[C@@H](CCN(CCCF)CCCCc3ccc4c(n3)NCCC4)C(=O)O)ncnc2c1 [compound 41]
< 50 | Cc1nc(N[C@@H](CCN(CCCCc2ccc3c(n2)NCCC3)CCOC2CC2(F)F)C(=O)O)c2ccc(F)cc2n1 (some centres unmarked) [compound 42]
< 50 | COc1cccc2c(N[C@@H](CCN(CCCF)CCCCc3ccc4c(n3)NCCC4)C(=O)O)ncnc12 [compound 43]
< 50 | COCCN(CCCCc1ccc2c(n1)NCCC2)CC[C@H](Nc1cc(-n2cccn2)ncn1)C(=O)O [compound 44]
< 50 | Cc1cc(C)n(CCN(CCCCc2ccc3c(n2)NCCC3)CC[C@H](Nc2ncnc3ccccc23)C(=O)O)n1 [compound 45]
< 50 | O=C(O)[C@H](CCN(CCCCc1ccc2c(n1)NCCC2)CCOc1cc(F)cc(F)c1)Nc1ncnc2ccccc12 [compound 47]
< 50 | O=C(O)[C@H](CCN(CCCCc1ccc2c(n1)NCCC2)CCOc1ccccn1)Nc1ncnc2c(Cl)cccc12 [compound 48]
< 50 | O=C(O)[C@H](CCN(CCCCc1ccc2c(n1)NCCC2)CCOc1ccccn1)Nc1ncnc2ccccc12 [compound 49]
< 50 | O=C(O)[C@H](CCN(CCCCc1ccc2c(n1)NCCC2)CCOCC(F)F)Nc1ncnc2ccccc12 [compound 50]
< 50 | O=C(O)[C@H](CCN(CCCCc1ccc2c(n1)NCCC2)CCOCC(F)(F)F)Nc1ncnc2cccnc12 [compound 51]

IC50 [nM] | SMILES
< 50 | Cc1ncccc1OCCN(CCCCc1ccc2c(n1)NCCC2)CCC(Nc1ncnc2ccccc12)C(=O)O (centres unmarked) [compound 52]
< 50 | Cc1nc(N[C@@H](CCN(CCCCc2ccc3c(n2)NCCC3)CCOc2cccnc2C)C(=O)O)c2ccc(F)cc2n1 [compound 53]
< 50 | Cc1ncccc1OCCN(CCCCc1ccc2c(n1)NCCC2)CC[C@H](Nc1ncnc2cccnc12)C(=O)O [compound 54]
< 50 | CCOCCN(CCCCc1ccc2c(n1)NCCC2)CC[C@H](Nc1ncnc2ccccc12)C(=O)O [compound 55]
< 50 | Cc1ccc2c(N[C@@H](CCN(CCCCc3ccc4c(n3)NCCC4)CCOc3ccc(C)nc3)C(=O)O)nc(C)nc2c1 [compound 56]
< 50 | Cc1ccc(OCCN(CCCCc2ccc3c(n2)NCCC3)CC[C@H](Nc2ncnc3cccnc23)C(=O)O)cn1 [compound 57]
< 50 | O=C(O)[C@H](CCN(CCCCc1ccc2c(n1)NCCC2)CCOc1cncc(F)c1)Nc1ncnc2ccccc12 [compound 58]
< 50 | Cc1ccc(OCCN(CCCCc2ccc3c(n2)NCCC3)CC[C@H](Nc2ncnc3ccccc23)C(=O)O)cn1 [compound 59]
< 50 | O=C(O)[C@H](CCN(CCCCc1ccc2c(n1)NCCC2)CCOc1cncc(F)c1)Nc1ncnc2cccnc12 [compound 60]
< 50 | Cc1nc(N[C@@H](CCN(CCCCc2ccc3c(n2)NCCC3)CCOc2cncc(F)c2)C(=O)O)c2ccc(F)cc2n1 [compound 61]
< 50 | CO[C@H](C)CN(CCCCc1ccc2c(n1)NCCC2)CCC(Nc1ncnc2ccccc12)C(=O)O (some centres unmarked) [compound 62]
< 50 | CC(=O)NCCN(CCCCc1ccc2c(n1)NCCC2)CC[C@H](Nc1ncnc2ccccc12)C(=O)O [compound 63]
< 50 | CN(C)C(=O)CN(CCCCc1ccc2c(n1)NCCC2)CC[C@H](Nc1ncnc2ccccc12)C(=O)O [compound 64]
< 50 | CO[C@H](C)CN(CCCCc1ccc2c(n1)NCCC2)CC[C@H](Nc1nc(C)nc2cc(F)ccc12)C(=O)O [compound 65]
< 50 | CO[C@H](C)CN(CCCCc1ccc2c(n1)NCCC2)CC[C@H](Nc1nc(C)nc2ccccc12)C(=O)O [compound 66]
< 50 | COCCN(CCCCc1ccc2c(n1)NCCC2)CC[C@H](Nc1nccnc1C#N)C(=O)O [compound 67]
< 50 | CO[C@H](C)CN(CCCCc1ccc2c(n1)NCCC2)CC[C@H](Nc1ncnc2[nH]ncc12)C(=O)O [compound 71]
< 50 | CO[C@H](C)CN(CCCCc1ccc2c(n1)NCCC2)CC[C@H](Nc1ccnc(-c2ccccc2)n1)C(=O)O [compound 73]
< 50 | CO[C@H](C)CN(CCCCc1ccc2c(n1)NCCC2)CC[C@H](Nc1ncnc2c1cnn2C)C(=O)O [compound 74]
< 50 | O=C(O)[C@H](CCN(CCO)CCCCc1ccc2c(n1)NCCC2)Nc1ncnc2ccccc12 [compound 75]
